What is called IC50 is the concentration that gives 50% inhibition.

SMILES strings stand for the structures.

This assay has as its target Leucine-rich repeat serine/threonine-protein kinase 2 (Homo sapiens, UniProt Q5S007). As to the kind of experiment: LRRK2 Assay: LRRK2 kinase activity was measured using Lantha Screen technology from Invitrogen. GST-tagged truncated LRRK2 from Invitrogen (Cat #PV4874) was incubated with a fluorescein-labeled peptide substrate based upon ezrin/radixin/moesin (ERM), also known as LRRKtide (Invitrogen cat #PR8976A), in the presence of a dose response of compound. Upon completion, the assay was stopped and detected with a terbium labeled anti-phospho-ERM antibody (Invitrogen, cat #PR8975A). The assay was carried out under the following protocol: The compound dose response was prepared by diluting compound to a top concentration of 0.3 mM in 100% DMSO and serial diluted by half-log in DMSO to give an 11 point curve, 100× final assay concentration. Using Echo acoustic dispensing, 60 nL of compound was transferred to a low volume Corning 384-well assay plate. 3 μL of a working solution of substrate (200 nM LRRKtide, 2 mM ATP) prepared in assay buffer (50 mM HEPES, pH 7.5, 3 mM MgCl2, with 2 mM DTT and 0.01% Brij35 added fresh) was added to the 60 nL compound assay plate. The kinase reaction was started with 3 μL of a working solution of LRRK2 enzyme at a concentration of 4 μg/mL. The final reaction concentrations were 100 nM LRRKtide, 1 mM ATP, 2 μg/mL LRRK2 enzyme and a compound dose response with a top dose of 3 μM. […].

Sequence of Leucine-rich repeat serine/threonine-protein kinase 2 (Q5S007 whole entry, looked up, the tested form may be a part): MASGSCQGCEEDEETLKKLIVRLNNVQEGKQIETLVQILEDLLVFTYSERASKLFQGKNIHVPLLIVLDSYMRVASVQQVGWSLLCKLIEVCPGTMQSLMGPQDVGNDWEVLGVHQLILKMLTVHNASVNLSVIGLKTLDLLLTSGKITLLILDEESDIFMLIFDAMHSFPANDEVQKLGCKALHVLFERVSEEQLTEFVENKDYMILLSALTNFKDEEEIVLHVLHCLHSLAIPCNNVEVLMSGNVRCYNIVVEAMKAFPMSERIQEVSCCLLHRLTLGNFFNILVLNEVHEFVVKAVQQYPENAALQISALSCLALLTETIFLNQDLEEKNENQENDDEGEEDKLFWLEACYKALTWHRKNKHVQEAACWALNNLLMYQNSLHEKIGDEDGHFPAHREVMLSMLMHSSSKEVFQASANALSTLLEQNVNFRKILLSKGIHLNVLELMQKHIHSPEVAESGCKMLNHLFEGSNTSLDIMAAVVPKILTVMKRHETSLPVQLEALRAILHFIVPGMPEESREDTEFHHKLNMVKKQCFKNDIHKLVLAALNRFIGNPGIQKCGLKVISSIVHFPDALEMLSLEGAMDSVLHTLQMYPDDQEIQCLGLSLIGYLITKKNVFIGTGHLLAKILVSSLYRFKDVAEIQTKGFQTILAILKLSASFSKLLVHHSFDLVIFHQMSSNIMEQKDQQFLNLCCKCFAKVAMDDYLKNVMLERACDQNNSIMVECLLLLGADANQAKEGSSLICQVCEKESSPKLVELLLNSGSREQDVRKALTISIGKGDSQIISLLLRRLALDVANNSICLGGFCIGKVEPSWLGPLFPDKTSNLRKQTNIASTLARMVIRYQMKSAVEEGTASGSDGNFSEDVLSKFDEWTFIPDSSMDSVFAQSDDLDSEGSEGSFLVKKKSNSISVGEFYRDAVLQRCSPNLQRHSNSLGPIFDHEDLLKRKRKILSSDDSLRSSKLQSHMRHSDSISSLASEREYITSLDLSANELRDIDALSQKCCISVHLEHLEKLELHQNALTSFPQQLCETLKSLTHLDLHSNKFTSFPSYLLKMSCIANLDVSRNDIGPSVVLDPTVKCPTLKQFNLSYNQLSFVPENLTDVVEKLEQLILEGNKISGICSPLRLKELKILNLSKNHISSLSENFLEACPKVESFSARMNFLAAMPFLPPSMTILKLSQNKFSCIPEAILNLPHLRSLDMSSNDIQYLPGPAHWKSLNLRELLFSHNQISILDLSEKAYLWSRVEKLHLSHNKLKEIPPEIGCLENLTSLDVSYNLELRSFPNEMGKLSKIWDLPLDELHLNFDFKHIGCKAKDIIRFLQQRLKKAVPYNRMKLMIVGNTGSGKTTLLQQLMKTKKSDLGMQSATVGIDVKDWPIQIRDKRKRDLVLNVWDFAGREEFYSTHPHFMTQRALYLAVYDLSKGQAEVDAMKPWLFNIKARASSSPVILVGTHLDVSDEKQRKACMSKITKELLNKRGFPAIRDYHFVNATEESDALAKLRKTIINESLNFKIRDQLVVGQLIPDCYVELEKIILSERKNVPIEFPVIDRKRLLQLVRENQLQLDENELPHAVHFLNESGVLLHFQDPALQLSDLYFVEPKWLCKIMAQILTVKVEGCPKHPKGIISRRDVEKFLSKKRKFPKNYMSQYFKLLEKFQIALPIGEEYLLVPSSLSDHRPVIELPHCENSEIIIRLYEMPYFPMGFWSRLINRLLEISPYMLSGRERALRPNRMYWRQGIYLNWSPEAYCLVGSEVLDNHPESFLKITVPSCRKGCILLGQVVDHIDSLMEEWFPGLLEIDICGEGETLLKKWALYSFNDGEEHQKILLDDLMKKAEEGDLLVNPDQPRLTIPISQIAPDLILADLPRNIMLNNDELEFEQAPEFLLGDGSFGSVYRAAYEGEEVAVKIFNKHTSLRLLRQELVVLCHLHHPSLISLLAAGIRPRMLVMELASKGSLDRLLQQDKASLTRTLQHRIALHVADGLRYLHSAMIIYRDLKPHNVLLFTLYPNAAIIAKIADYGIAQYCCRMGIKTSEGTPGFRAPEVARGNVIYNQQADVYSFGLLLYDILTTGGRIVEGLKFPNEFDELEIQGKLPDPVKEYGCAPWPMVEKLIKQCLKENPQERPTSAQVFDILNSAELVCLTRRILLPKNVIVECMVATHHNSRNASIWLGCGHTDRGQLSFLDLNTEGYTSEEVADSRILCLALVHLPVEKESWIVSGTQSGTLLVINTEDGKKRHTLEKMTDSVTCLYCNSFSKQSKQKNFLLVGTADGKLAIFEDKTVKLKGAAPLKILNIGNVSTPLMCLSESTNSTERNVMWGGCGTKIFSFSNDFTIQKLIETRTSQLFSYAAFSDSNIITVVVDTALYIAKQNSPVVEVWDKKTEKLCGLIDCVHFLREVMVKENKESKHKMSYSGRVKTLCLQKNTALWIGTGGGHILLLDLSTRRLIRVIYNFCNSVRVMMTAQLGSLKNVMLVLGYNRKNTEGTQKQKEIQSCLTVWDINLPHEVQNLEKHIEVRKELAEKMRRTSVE

`CN1CC[C@@H](n2c(C3CCC(F)C3)nc3cnc4ccc(F)cc4c32)C1` (stereo partly specified): the IC50 is over 2840 nM.

These data come from ChEMBL document CHEMBL5728780, “Cyclic substituted imidazo[4,5-c]quinoline derivatives” (2021).
